Experimental data taken from patent publication US6448204B1, “Herbicidal 2-aryloxy-4-methyl-6-pyrazol-1-yl-pyridines” (BASF Aktiengesellschaft, priority 1999, dated 2002).

Legend:
Assay type in all cases: in vivo
[1] = system: Digitaria sanguinalis (DIGSA); test: Pre-emergence test; conditions: 0.400 kg/ha, 3 weeks after treatment
Procedure: (§1) To evaluate their herbicidal activity, compounds according to the invention are tested using a representative range of plants: […] The pre-emergence tests involve spraying a liquid formulation of the compound onto the soil in which the seeds of the plant species mentioned above has recently been sown. The soil used in the tests is a prepared horticultural loam. […] In these tests untreated sown soil are used as controls.

[2] = system: Ambrosia artemisifolia (AMBEL); test: Pre-emergence test; conditions: 3 weeks after treatment
Procedure: as §1

[3] = system: thirteen weed species (broadleaf weeds and grasses); test: Pre-emergence test, summary over all weeds; conditions: for Number of weed species well / sufficiently controlled: out of thirteen species
Procedure: as §1

[4] = system: Galium aparine (GALAP); test: Post-emergence test; conditions: 2-4 weeks after treatment
Procedure: (§2) To evaluate their herbicidal activity, compounds according to the invention are tested using a representative range of plants:
(§3) These acetone solutions are diluted with water and the resulting formulations applied at dosage levels equivalent of about 0.025 to 0.4 kg per hectare of test compound per pot. After spraying the plants are placed on greenhouse benches and are cared for in the usual manner, commensurate with conventional greenhouse practices. From 2 to 4 weeks after treatment, the seedling plants are examined and rated according to the rating system provided above.

[5] = system: Lamium purpureum (LAMPU); test: Post-emergence test; conditions: 2-4 weeks after treatment
Procedure: as §2, §3

[6] = system: Alopecurus myosuroides (ALOMY); test: Post-emergence test; conditions: 2-4 weeks after treatment
Procedure: as §2, §3

[7] = system: Cassia obtusifolia (CASOB); test: Post-emergence test; conditions: 2-4 weeks after treatment
Procedure: as §2, §3

[8] = system: Echinochloa crus-galli (ECHCG); test: Post-emergence test; conditions: 2-4 weeks after treatment
Procedure: as §2, §3

[9] = system: Stellaria media (STEME); test: Post-emergence test; conditions: 2-4 weeks after treatment
Procedure: as §2, §3

[10] = system: Matricaria inodora (MATIN); test: Post-emergence test; conditions: 2-4 weeks after treatment
Procedure: as §2, §3

[11] = system: Abutilon theophrasti (ABUTH); test: Post-emergence test; conditions: 2-4 weeks after treatment
Procedure: as §2, §3

[12] = system: Ipomoea hederacea (IPOHE); test: Post-emergence test; conditions: 2-4 weeks after treatment
Procedure: as §2, §3

[13] = system: Setaria viridis (SETVI); test: Post-emergence test; conditions: 2-4 weeks after treatment
Procedure: as §2, §3

[14] = system: Lolium multiflorum (LOLMU); test: Post-emergence test; conditions: 2-4 weeks after treatment
Procedure: as §2, §3

[15] = system: Digitaria sanguinalis (DIGSA); test: Post-emergence test; conditions: 2-4 weeks after treatment
Procedure: as §2, §3

[16] = system: Ambrosia artemisifolia (AMBEL); test: Post-emergence test; conditions: 2-4 weeks after treatment
Procedure: as §2, §3

[17] = system: weed species; test: Post-emergence test, summary over all weeds
Procedure: as §2, §3

Cn1nc(C(F)(F)F)cc1Oc1cccc(-n2ccc(C(F)(F)F)n2)n1 [Comparison]
Assessment rating DIGSA (pre-emergence application) [1]: 9 (9 - Complete kill) | Assessment rating AMBEL (pre-emergence application) ([2]; 0.013 kg/ha): 0 (0 - No effect) | Assessment rating AMBEL (pre-emergence application) ([2]; 0.025 kg/ha): 4 (4 - Injury) | Assessment rating AMBEL (pre-emergence application) ([2]; 0.100 kg/ha): 6 (6 - Herbicidal effect) | Assessment rating AMBEL (pre-emergence application) ([2]; 0.400 kg/ha): 8 (8 - Approaching complete kill) | Active ingredient required for maize selective weed control relative to the compound of the invention [3]: four times more active ingredient | Herbicidal activity, overall judgement [3]: clearly inferior in activity | Rate required to obtain the same level of weed control [3]: 0.400 kg/ha | Number of weed species well / sufficiently controlled ([3]; 0.100 kg/ha): six out of thirteen species | Number of weed species well / sufficiently controlled ([3]; 0.400 kg/ha): ten | Rating GALAP (post-emergence application) ([4]; 0.025 kg/ha): 4 (4 - Injury) | Rating GALAP (post-emergence application) ([4]; 0.100 kg/ha): 6 (6 - Herbicidal effect) | Rating GALAP (post-emergence application) ([4]; 0.400 kg/ha): 8 (8 - Approaching complete kill) | Rating LAMPU (post-emergence application) ([5]; 0.025 kg/ha): 7 (7 - Good herbicidal effect) | Rating LAMPU (post-emergence application) ([5]; 0.100 kg/ha): 9 (9 - Complete kill) | Rating LAMPU (post-emergence application) ([5]; 0.400 kg/ha): 9 (9 - Complete kill) | Rating ALOMY (post-emergence application) ([6]; 0.025 kg/ha): 2 (2 - Slight effect) | Rating ALOMY (post-emergence application) ([6]; 0.100 kg/ha): 4 (4 - Injury) | Rating ALOMY (post-emergence application) ([6]; 0.400 kg/ha): 8 (8 - Approaching complete kill) | Rating CASOB (post-emergence application) ([7]; 0.025 kg/ha): 9 (9 - Complete kill) | Rating CASOB (post-emergence application) ([7]; 0.100 kg/ha): 9 (9 - Complete kill) | Rating CASOB (post-emergence application) ([7]; 0.400 kg/ha): 9 (9 - Complete kill) | Rating ECHCG (post-emergence application) ([8]; 0.025 kg/ha): 4 (4 - Injury) | Rating ECHCG (post-emergence application) ([8]; 0.100 kg/ha): 7 (7 - Good herbicidal effect) | Rating ECHCG (post-emergence application) ([8]; 0.400 kg/ha): 9 (9 - Complete kill) | Rating STEME (post-emergence application) ([9]; 0.025 kg/ha): 7 (7 - Good herbicidal effect) | Rating STEME (post-emergence application) ([9]; 0.100 kg/ha): 9 (9 - Complete kill) | Rating STEME (post-emergence application) ([9]; 0.400 kg/ha): 9 (9 - Complete kill) | Rating MATIN (post-emergence application) ([10]; 0.025 kg/ha): 4 (4 - Injury) | Rating MATIN (post-emergence application) ([10]; 0.100 kg/ha): 6 (6 - Herbicidal effect) | Rating MATIN (post-emergence application) ([10]; 0.400 kg/ha): 8 (8 - Approaching complete kill) | Rating ABUTH (post-emergence application) ([11]; 0.025 kg/ha): 3 (3 - Moderate effect) | Rating ABUTH (post-emergence application) ([11]; 0.100 kg/ha): 6 (6 - Herbicidal effect) | Rating ABUTH (post-emergence application) ([11]; 0.400 kg/ha): 8 (8 - Approaching complete kill) | Rating IPOHE (post-emergence application) ([12]; 0.025 kg/ha): 5 (5 - Definite injury) | Rating IPOHE (post-emergence application) ([12]; 0.100 kg/ha): 9 (9 - Complete kill) | Rating IPOHE (post-emergence application) ([12]; 0.400 kg/ha): 9 (9 - Complete kill) | Rating SETVI (post-emergence application) ([13]; 0.025 kg/ha): 3 (3 - Moderate effect) | Rating SETVI (post-emergence application) ([13]; 0.100 kg/ha): 6 (6 - Herbicidal effect) | Rating SETVI (post-emergence application) ([13]; 0.400 kg/ha): 8 (8 - Approaching complete kill) | Rating LOLMU (post-emergence application) ([14]; 0.025 kg/ha): 4 (4 - Injury) | Rating LOLMU (post-emergence application) ([14]; 0.100 kg/ha): 7 (7 - Good herbicidal effect) | Rating LOLMU (post-emergence application) ([14]; 0.400 kg/ha): 9 (9 - Complete kill) | Rating DIGSA (post-emergence application) ([15]; 0.025 kg/ha): 3 (3 - Moderate effect) | Rating DIGSA (post-emergence application) ([15]; 0.100 kg/ha): 6 (6 - Herbicidal effect) | Rating DIGSA (post-emergence application) ([15]; 0.400 kg/ha): 8 (8 - Approaching complete kill) | Rating AMBEL (post-emergence application) ([16]; 0.025 kg/ha): 2 (2 - Slight effect) | Rating AMBEL (post-emergence application) ([16]; 0.100 kg/ha): 6 (6 - Herbicidal effect) | Rating AMBEL (post-emergence application) ([16]; 0.400 kg/ha): 8 (8 - Approaching complete kill) | Number of weed species controlled ([17]; 0.025 kg/ha): one species | Number of weed species controlled ([17]; 0.100 kg/ha): four species
